“Also recorded” adds a separate entry of the source.
How the values were obtained:
PSD-95/nNOS [1] = assay: yeast two-hybrid growth in −LTH medium, pGAD424-PSD-95 and pGBT9-nNOS; type: cell-based
Text: (§1) We utilized the yeast two-hybrid system to investigate the effects of halothane on protein interactions within the NMDA receptor signaling complex. The PDZ domain of nNOS or the C-terminus of NMDA receptor subunit 2B (NR2B) was fused in frame with the GAL4 DNA-binding domain in a yeast vector, pGBT9. The PDZ domain of PSD95 or PSD-93 was fused in frame with the GAL4 activation domain in another yeast vector, pGAD424. Both yeast vectors were co-transformed into the Y190 yeast strain, which was then grown in the absence or presence of halothane at clinically relevant concentrations. Protein-protein interactions were confirmed by both yeast growth on −Leu/−Trp/−His (−LTH) medium and lacz expression. To confirm the yeast two-hybrid results, the GST fusion protein binding assay was performed. The GST-fusion proteins, consisting of the second PDZ domain of PSD-95 or PSD-93, were expressed in bacterial BL21 cells and purified using glutathione-coupled agarose. After preincubation with or without different concentrations of halothane, GST-PSD-95 or GST-PSD-93 was incubated with membrane proteins from rat hippocampus at room temperature for 1 h. After extensive washing, the bound proteins were eluted by boiling in 1×SDS-PAGE sample buffer and detected by immunoblotting.

[2] = test system: PSD-95/NMDA receptor subunit 2B (NR2B); assay: yeast two-hybrid growth in −LTH medium, pGAD424-PSD-95 and pGBT9-2B; type: cell-based
Text: as §1

PSD-93/nNOS [3] = assay: yeast two-hybrid growth in −LTH medium, pGAD424-PSD-93 and pGBT9-nNOS; type: cell-based
Text: as §1

[4] = test system: PSD-93/NMDA receptor subunit 2B (NR2B); assay: yeast two-hybrid growth in −LTH medium, pGAD424-PSD-93 and pGBT9-2B; type: cell-based
Text: as §1

Y190 yeast strain = assay: yeast growth in −LT media (cytotoxicity control); type: cell-based; settings: high halothane concentration (3.6%)
Text: Under normal conditions, PSD-95 interacts with nNOS, resulting in good growth of the yeast carrying pGAD424-PSD-95 and pGBT9-nNOS in −LTH medium. […] Rather, the failure of yeast to grow in −LTH media in the presence of halothane must be due to disruption of protein-protein interactions by halothane. […] These findings confirm the yeast two-hybrid results.
as §1, with “The GST-fusion proteins, consisting of the second PDZ domain of PSD-95 or PSD-93, were expressed in bacterial BL21 cells and purified using glutathione-coupled agarose. After preincubation with or without different concentrations of halothane, GST-PSD-95 or GST-PSD-93 was incubated with membrane proteins from rat hippocampus at room temperature for 1 h.” left out

PSD-95/NMDA receptor = biological target: T1, PSD-95/NMDA receptor (Rattus norvegicus, UniProt P31016); assay: GST fusion protein binding assay, GST-PSD-95 and NMDA receptors; settings: preincubation with different concentrations of halothane
T1 construct: The GST-fusion proteins, consisting of the second PDZ domain of PSD-95 or PSD-93; made in house; host or cells: bacterial BL21 cells (GST fusion); partner from rat hippocampal membranes
Text: as §1

PSD-95/nNOS [5] = biological target: T2, PSD-95/nNOS (Rattus norvegicus, UniProt P31016); assay: GST fusion protein binding assay, GST-PSD-95 and nNOS; settings: preincubation with different concentrations of halothane
T2 construct: The GST-fusion proteins, consisting of the second PDZ domain of PSD-95 or PSD-93; made in house; host or cells: bacterial BL21 cells (GST fusion); partner from rat hippocampal membranes
Text: as §1

PSD-93/NMDA receptor = assay: GST fusion protein binding assay, GST-PSD-93 and NMDA receptors; set-up: species or system rat; settings: preincubation with different concentrations of halothane
Text: as §1, with “Protein-protein interactions were confirmed by both yeast growth on −Leu/−Trp/−His (−LTH) medium and lacz expression.” left out

PSD-93/nNOS [6] = assay: GST fusion protein binding assay, GST-PSD-93 and nNOS; set-up: species or system rat; settings: preincubation with different concentrations of halothane
Text: as §1

T1 sequence (P31016 160-246 limits assumed): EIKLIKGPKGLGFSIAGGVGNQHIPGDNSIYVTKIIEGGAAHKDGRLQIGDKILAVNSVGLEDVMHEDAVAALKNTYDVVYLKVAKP
T2 sequence (P31016 160-246 limits assumed): as above

## FC(F)(F)C(Cl)Br (centres unmarked) [halothane]
PSD-95/nNOS [1]; dose dependence
  growth of the yeast in −LTH media: dose-dependently inhibited
PSD-95/nNOS [1]; high concentration (1.3%)
  yeast growth in −LTH media: completely inhibited yeast growth
PSD-95/nNOS [1]; low halothane concentrations (0.4%-0.7%)
  growth of yeast clones in −LTH media: slowed the growth
[2]
  growth of the yeast in −LTH media: A similar phenomenon was observed
PSD-93/nNOS [3]
  growth of the yeast in −LTH media: inhibited by halothane in a similar way
[4]
  growth of the yeast in −LTH media: inhibited by halothane in a similar way
Y190 yeast strain
  yeast growth in −LT media: growth did not differ from yeast grown without halothane
PSD-95/NMDA receptor
  binding of GST-fusion PSD-95 to rat brain NMDA receptors: blocks; also recorded: dose-dependently inhibited
PSD-95/nNOS [5]
  binding of GST-fusion PSD-95 to nNOS: blocks; also recorded: dose-dependently inhibited
PSD-93/NMDA receptor
  binding of GST-fusion PSD-93 to rat brain NMDA receptors: blocks; also recorded: dose-dependently inhibited
PSD-93/nNOS [6]
  binding of GST-fusion PSD-93 to nNOS: blocks; also recorded: dose-dependently inhibited

Source: patent US8148347B2, “Inhibition of interaction of PSD93 and PSDS95 with nNOS and NMDA receptors” (The Johns Hopkins University, priority 2000, dated 2012)
